Assay results from US20250099431A1, “GLP-1R MODULATING COMPOUNDS” (priority 2020, published 2025).

What was measured:
GLP-1R = GLP-1R (Homo sapiens (Human), UniProt P43220); experiment: GLP-1R activation: cAMP increase in CHO cells stably expressing GLP-1R; type: cell-based; conditions: cAMP increase, 10 point dose response, 30 minutes incubation at 37° C., read-out: EC50
In short: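 CHO cells stably expressing GLP-1R were incubated 1 h at 37 °C in medium with 1% BSA, then exposed to compound in a 10-point dose response for 30 min at 37 °C. cAMP rise was detected by HTRF (Gs Dynamic kit). EC50 came from a sigmoidal fit of response against log agonist concentration.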

[1] = Microsomal stability (liver microsomal assay, mixed cofactors); predicted hepatic clearance; type: in vitro ADME; conditions: liver microsomes 1.0 mg protein/mL (+UDPGA +NADPH), 1 μM analyte, 37° C.; scaled with human liver weight and hepatic blood flow 1.3 L/hr/kg
In short: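 Compound at 1 μM with human or rat pooled liver microsomes, alamethicin-treated, pH 7.4 phosphate, NADPH-regenerating plus UDPGA cofactors, 37° C, sampled 0–70 min. Parent/internal standard ratio by RapidFire QToF MS; half-life from initial log-linear decay, scaled to intrinsic and predicted hepatic clearance and hepatic extraction.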

GLP-1R, sequence (P43220 24-463): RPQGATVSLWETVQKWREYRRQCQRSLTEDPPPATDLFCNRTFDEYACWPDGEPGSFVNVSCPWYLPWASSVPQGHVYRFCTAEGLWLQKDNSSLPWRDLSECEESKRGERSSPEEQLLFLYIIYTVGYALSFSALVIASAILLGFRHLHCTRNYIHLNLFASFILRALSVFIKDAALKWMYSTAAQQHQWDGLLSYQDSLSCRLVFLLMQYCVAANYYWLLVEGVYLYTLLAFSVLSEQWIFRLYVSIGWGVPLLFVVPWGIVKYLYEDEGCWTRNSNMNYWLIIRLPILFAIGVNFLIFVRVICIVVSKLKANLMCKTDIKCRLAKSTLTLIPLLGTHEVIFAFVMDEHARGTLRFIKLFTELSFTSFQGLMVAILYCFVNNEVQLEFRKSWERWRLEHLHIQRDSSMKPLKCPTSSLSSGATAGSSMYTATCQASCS

SMILES	EC50 (GLP-1R)	Predicted Hepatic Clearance (Pred. Cl.) [1]
COCCn1c(Cc2cc(F)c(-c3cccc4c3OC(C)(c3ccc(C#N)cc3F)O4)cc2F)nc2c(F)cc(C(=O)O)cc21 (centres unmarked) [Example 62, 2-(4-(2-(4-cyano-2-fluorophenyl)-2-methylbenzo[d][1, 3]dioxol-4-yl)-2,5-difluorobenzyl)-4-fluoro-1-(2-methoxyethyl)-1H-benzo[d]imidazole-6-carboxylic acid]	2.5 nM	8.83 mL/min/kg
CC1(c2ccc(Cl)cn2)Oc2cccc(-c3ccn(Cc4nc5ccc(C(=O)O)cc5n4C[C@@H]4CCO4)c(=O)c3)c2O1 (stereo partly drawn) [Example 26, 2-((4-(2-(5-chloropyridin-2-yl)-2-methylbenzo[d][1, 3]dioxol-4-yl)-2-oxopyridin-1(2H)-yl)methyl)-1-(((S)-oxetan-2-yl)methyl)-1H-benzo[d]imidazole-6-carboxylic acid]	37 nM	<1.83 mL/min/kg
CC1(c2ccc(Cl)cc2F)Oc2cccc(-c3cc(F)c(Cc4nc5ccc(C(=O)O)cc5n4C[C@@H]4CCO4)c(F)c3F)c2O1 (stereo partly drawn) [Example 20, 2-(4-(2-(4-chloro-2-fluorophenyl)-2-methylbenzo[d][1, 3]dioxol-4-yl)-2,3,6-trifluorobenzyl)-1-(((S)-oxetan-2-yl)methyl)-1H-benzo[d]imidazole-6-carboxylic acid]	0.089 nM	2.5 mL/min/kg
COCCn1c(Cc2c(F)cc(-c3cccc4c3OC(C)(c3ccc(C#N)cc3F)O4)c(F)c2F)nc2ccc(C(=O)O)cc21 (single isomer, unassigned) [Example 96, 2-(4-(2-(4-cyano-2-fluorophenyl)-2-methylbenzo[d][1, 3]dioxol-4-yl)-2,3,6-trifluorobenzyl)-1-(2-methoxyethyl)-1H-benzo[d]imidazole-6-carboxylic acid]	57 nM	3.5 mL/min/kg
CC1(c2ccc(Cl)cn2)Oc2cccc(-c3cc(F)c(Cc4nc5ccc(C(=O)O)cc5n4C[C@@H]4CCO4)c(F)c3F)c2O1 (stereo partly drawn) [Example 70, 2-(4-(2-(5-chloropyridin-2-yl)-2-methylbenzo[d][1, 3]dioxol-4-yl)-2,3,6-trifluorobenzyl)-1-(((S)-oxetan-2-yl)methyl)-1H-benzo[d]imidazole-6-carboxylic acid]	0.78 nM	3.5 mL/min/kg
COCCn1c(Cc2c(F)cc(-c3cccc4c3OC(c3ccc(C#N)cc3F)O4)cc2F)nc2ccc(C(=O)O)cc21 (centres unmarked) [Example 5, 2-(4-(2-(4-cyano-2-fluorophenyl)benzo[d][1, 3]dioxol-4-yl)-2,6-difluorobenzyl)-1-(2-methoxyethyl)-1H-benzo[d]imidazole-6-carboxylic acid]	161 nM	<1.83 mL/min/kg
N#Cc1ccc(C2Oc3cccc(-c4cc(F)c(Cc5nc6ccc(C(=O)O)cc6n5C[C@@H]5CCO5)c(F)c4)c3O2)c(F)c1 (single isomer, unassigned) [Example 42]	1.1 nM	3.83 mL/min/kg
CCn1cnnc1Cn1c(Cc2c(F)cc(-c3cccc4c3OC(C)(c3ccc(Cl)cc3F)O4)cc2F)nc2ccc(C(=O)O)cc21 (centres unmarked) [Example 68, 2-(4-(2-(4-chloro-2-fluorophenyl)-2-methylbenzo[d][1, 3]dioxol-4-yl)-2,6-difluorobenzyl)-1-((4-ethyl-4H-1,2,4-triazol-3-yl)methyl)-1H-benzo[d]imidazole-6-carboxylic acid]	12 nM	2.83 mL/min/kg
COCCn1c(Cc2cc(F)c(-c3cccc4c3OC(c3ccc(C#N)cc3F)O4)cc2F)nc2ccc(C(=O)O)cc21 (single isomer, unassigned) [Example 39, 2-(4-(2-(4-cyano-2-fluorophenyl)benzo [d][1,3]dioxol-4-yl)-2,5-difluorobenzyl)-1-(2-methoxyethyl)-1H-benzo[d]imidazole-6-carboxylic acid]	49 nM	3.17 mL/min/kg
CC1(c2ccc(Cl)cc2F)Oc2cccc(-c3cc(F)c(Cc4nc5ccc(C(=O)O)cc5n4Cc4ncco4)c(F)c3)c2O1 (centres unmarked) [Example 69, 2-(4-(2-(4-chloro-2-fluorophenyl)-2-methylbenzo[d][1, 3]dioxol-4-yl)-2,6-difluorobenzyl)-1-(oxazol-2-ylmethyl)-1H-benzo[d]imidazole-6-carboxylic acid]	2.5 nM	2.5 mL/min/kg
CC1(c2ccc(C#N)cc2F)Oc2cccc(-c3cc(F)c(Cc4nc5ccc(C(=O)O)cc5n4C[C@@H]4CCO4)c(F)c3F)c2O1 (stereo partly drawn) [Example 90, 2-(4-(2-(4-cyano-2-fluorophenyl)-2-methylbenzo[d][1, 3]dioxol-4-yl)-2,3,6-trifluorobenzyl)-1-(((S)-oxetan-2-yl)methyl)-1H-benzo[d]imidazole-6-carboxylic acid]	0.23 nM	4.67 mL/min/kg
CC1(c2ccc(Cl)cc2F)Oc2cccc(-c3ccc(Cc4nc5ccc(C(=O)O)cc5n4Cc4ccon4)c(F)c3)c2O1 (centres unmarked) [Example 107, 2-(4-(2-(4-chloro-2-fluorophenyl)-2-methylbenzo[d][1, 3]dioxol-4-yl)-2-fluorobenzyl)-1-(isoxazol-3-ylmethyl)-3a,7a-dihydro-1H-benzo[d]imidazole-6-carboxylic acid]	1.9 nM	4.33 mL/min/kg
COCCn1c(Cc2c(F)cc(-c3cccc4c3OC(C)(c3ccc(C#N)cc3F)O4)cc2F)nc2ccc(C(=O)O)cc21 (single isomer, unassigned) [Example 98, 2-(4-(2-(4-cyano-2-fluorophenyl)-2-methylbenzo[d][1, 3]dioxol-4-yl)-2,6-difluorobenzyl)-1-(2-methoxyethyl)-1H-benzo[d]imidazole-6-carboxylic acid]	67 nM	3.5 mL/min/kg
COCCn1c(Cc2ccc(-c3cccc4c3OC(c3ccccc3)O4)cc2F)nc2ccc(C(=O)O)cc21 (single isomer, unassigned) [Example 35, 2-(2-fluoro-4-(2-phenylbenzo[d][1, 3]dioxol-4-yl)benzyl)-1-(2-methoxyethyl)-1H-benzo[d]imidazole-6-carboxylic acid]	646 nM	2.83 mL/min/kg
COCCn1c(Cc2cc(F)c(-c3cccc4c3OC(C)(c3ccc(C#N)cc3F)O4)cc2F)nc2ccc(C(=O)O)cc21 (centres unmarked) [Example 81, 2-(4-(2-(4-cyano-2-fluorophenyl)-2-methylbenzo[d][1, 3]dioxol-4-yl)-2,5-difluorobenzyl)-1-(2-methoxyethyl)-1H-benzo[d]imidazole-6-carboxylic acid]	26 nM	8.67 mL/min/kg
COCCn1c(Cc2ccc(-c3cccc4c3OC(C)(c3ccc(Cl)cc3F)O4)n(C)c2=O)nc2ccc(C(=O)O)cc21 (centres unmarked) [Example 87, 2-((6-(2-(4-chloro-2-fluorophenyl)-2-methylbenzo[d][1, 3]dioxol-4-yl)-1-methyl-2-oxo-1,2-dihydropyridin-3-yl)methyl)-1-(2-methoxyethyl)-1H-benzo[d]imidazole-6-carboxylic acid]	1150 nM	9 mL/min/kg
CC1(c2ccc(C#N)cc2F)Oc2cccc(-c3cc(F)c(Cc4nc5ccc(C(=O)O)cc5n4C[C@@H]4CCO4)cc3F)c2O1 (stereo partly drawn) [Example 25, 2-(4-(2-(4-cyano-2-fluorophenyl)-2-methylbenzo[d][1, 3]dioxol-4-yl)-2,5-difluorobenzyl)-1-(((S)-oxetan-2-yl)methyl)-1H-benzo[d]imidazole-6-carboxylic acid]	0.3 nM	4.33 mL/min/kg
CC1(c2ccc(Cl)cc2F)Oc2cccc(-c3cc(F)c(Cc4nc5c(F)cc(C(=O)O)cc5n4CC4(CC#N)CC4)c(F)c3)c2O1 (centres unmarked) [Example 13, 2-(4-(2-(4-chloro-2-fluorophenyl)-2-methylbenzo[d][1, 3]dioxol-4-yl)-2,6-difluorobenzyl)-1-((1-(cyanomethyl)cyclo-propyl)methyl)-4-fluoro-1H-benzo[d]imidazole-6-carboxylic acid]	0.41 nM	<1.83 mL/min/kg
CC1(c2ccc(C#N)cc2F)Oc2cccc(-c3cc(F)c(Cc4nc5ccc(C(=O)O)cc5n4C[C@@H]4CCO4)c(F)c3F)c2O1 (single isomer, unassigned) [Example 95]	21 nM	2.83 mL/min/kg
O=C(O)c1ccc2nc(Cc3c(F)cc(-c4cccc5c4CN(c4ccc(Cl)cc4F)C5=O)cc3F)n(C[C@@H]3CCO3)c2c1 [Example 73, (S)-2-(4-(2-(4-chloro-2-fluorophenyl)-1-oxoisoindolin-4-yl)-2,6-difluorobenzyl)-1-(oxetan-2-ylmethyl)-1H-benzo[d]imidazole-6-carboxylic acid]	10000 nM	2.5 mL/min/kg
COCCn1c(Cc2c(F)cc(-c3cccc4c3OC(C)(c3ccc(C(F)(F)F)cc3F)O4)cc2F)nc2ccc(C(=O)O)cc21 (centres unmarked) [Example 58, 2-(2,6-difluoro-4-(2-(2-fluoro-4-(trifluoromethyl)phenyl)-2-methylbenzo[d][1, 3]dioxol-4-yl)benzyl)-1-(2-methoxyethyl)-1H-benzo[d]imidazole-6-carboxylic acid]	6.3 nM	3.17 mL/min/kg
CC1(c2ccc(Cl)cn2)Oc2cccc(-c3cc(F)c(Cc4nc5ccc(C(=O)O)cc5n4C[C@@H]4CCO4)c(F)c3)c2O1 (stereo partly drawn) [Example 27, 2-(4-(2-(5-chloropyridin-2-yl)-2-methylbenzo[d][1, 3]dioxol-4-yl)-2,6-difluorobenzyl)-1-(((S)-oxetan-2-yl)methyl)-1H-benzo[d]imidazole-6-carboxylic acid]	0.53 nM	2.33 mL/min/kg
